Measurements as given in PubChem BioAssay (NCI).
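Five compound concentrations were applied to cells in 96-well plates for 48 hours; endpoints were derived by simple linear interpolation of the resulting dose-response curve. TGI marks complete inhibition of growth.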

Tests used:
Assay in all cases: growth of human tumour cells (NCI), 48 h
PC-3 prostate = test system: PC-3 prostate
KM12 colon = test system: KM12 colon
SK-OV-3 ovarian = test system: SK-OV-3 ovarian
MCF7 breast = test system: MCF7 breast
HOP-92 NSCLC = test system: HOP-92 NSCLC
CCRF-CEM leukemia = test system: CCRF-CEM leukemia
HS 578T breast = test system: HS 578T breast
OVCAR-8 ovarian = test system: OVCAR-8 ovarian
HOP-62 NSCLC = test system: HOP-62 NSCLC
NCI-H522 lung = test system: NCI-H522 lung
DU-145 prostate = test system: DU-145 prostate
COLO 205 colon = test system: COLO 205 colon
LOX IMVI melanoma = test system: LOX IMVI melanoma
TK-10 renal = test system: TK-10 renal
RPMI-8226 leukemia = test system: RPMI-8226 leukemia
786-0 renal = test system: 786-0 renal
SNB-75 CNS = test system: SNB-75 CNS
HT29 colon = test system: HT29 colon
RXF 393 renal = test system: RXF 393 renal
MOLT-4 leukemia = test system: MOLT-4 leukemia
SK-MEL-5 melanoma = test system: SK-MEL-5 melanoma
SF-268 CNS = test system: SF-268 CNS
UO-31 renal = test system: UO-31 renal
SF-295 CNS = test system: SF-295 CNS
A498 renal = test system: A498 renal
SR leukemia = test system: SR leukemia
SF-539 CNS = test system: SF-539 CNS
NCI-H460 lung = test system: NCI-H460 lung
NCI-H23 lung = test system: NCI-H23 lung
SW-620 colon = test system: SW-620 colon
NCI-H226 lung = test system: NCI-H226 lung
BT-549 breast = test system: BT-549 breast
T-47D breast = test system: T-47D breast
OVCAR-5 ovarian = test system: OVCAR-5 ovarian
SK-MEL-2 melanoma = test system: SK-MEL-2 melanoma
OVCAR-4 ovarian = test system: OVCAR-4 ovarian
SK-MEL-28 melanoma = test system: SK-MEL-28 melanoma
EKVX NSCLC = test system: EKVX NSCLC
MDA-N = test system: MDA-N
SNB-19 CNS = test system: SNB-19 CNS
SN12C renal = test system: SN12C renal
OVCAR-3 ovarian = test system: OVCAR-3 ovarian
M14 melanoma = test system: M14 melanoma
MDA-MB-435 = test system: MDA-MB-435
CAKI-1 renal = test system: CAKI-1 renal
K-562 leukemia = test system: K-562 leukemia
A549 NSCLC = test system: A549 NSCLC
HCT-15 colon = test system: HCT-15 colon
MDA-MB-231 breast = test system: MDA-MB-231 breast
UACC-62 melanoma = test system: UACC-62 melanoma
U251 CNS = test system: U251 CNS
ACHN renal = test system: ACHN renal
HCC-2998 colon = test system: HCC-2998 colon
MALME-3M melanoma = test system: MALME-3M melanoma
UACC-257 melanoma = test system: UACC-257 melanoma
NCI/ADR-RES ovarian = test system: NCI/ADR-RES ovarian
HCT-116 colon = test system: HCT-116 colon
IGROV1 ovarian = test system: IGROV1 ovarian
HL-60(TB) leukemia = test system: HL-60(TB) leukemia

Work on `NCCCCCCn1c(-c2ccc(Br)cc2)csc1=Nc1ccccc1` yielded a TGI (PC-3 prostate) of 18.3 µM, a TGI (KM12 colon) of 19.7 µM and a TGI (SK-OV-3 ovarian) of 31.1 µM. It also gave a TGI (MCF7 breast) of 17.4 µM, a TGI (HOP-92 NSCLC) of 32.4 µM and a TGI (CCRF-CEM leukemia) of 21.6 µM. The TGI (HS 578T breast) was 35.6 µM, the TGI (OVCAR-8 ovarian) was 26.2 µM and the TGI (HOP-62 NSCLC) was 32.4 µM. It also gave a TGI (NCI-H522 lung) of 24 µM, a TGI (DU-145 prostate) of 26.3 µM and a TGI (COLO 205 colon) of 3.18 µM. The TGI (LOX IMVI melanoma) was 13.1 µM, the TGI (TK-10 renal) was 26.7 µM and the TGI (RPMI-8226 leukemia) was 16.2 µM. It also gave a TGI (786-0 renal) of 21.9 µM, a TGI (SNB-75 CNS) of 24.2 µM and a TGI (HT29 colon) of 19.9 µM. It also gave a TGI (RXF 393 renal) of 26.2 µM, a TGI (MOLT-4 leukemia) of 14.8 µM and a TGI (SK-MEL-5 melanoma) of 21.7 µM. It also gave a TGI (SF-268 CNS) of 31.3 µM, a TGI (UO-31 renal) of 22.1 µM and a TGI (SF-295 CNS) of 29.5 µM. The TGI (A498 renal) was 33.6 µM, the TGI (SR leukemia) was 11.3 µM and the TGI (SF-539 CNS) was 30.6 µM. It also gave a TGI (NCI-H460 lung) of 27.1 µM, a TGI (NCI-H23 lung) of 29.8 µM and a TGI (SW-620 colon) of 17.6 µM. It also gave a TGI (NCI-H226 lung) of 39.5 µM, a TGI (BT-549 breast) of 27.4 µM and a TGI (T-47D breast) of 18.3 µM. It also gave a TGI (OVCAR-5 ovarian) of 24.6 µM, a TGI (SK-MEL-2 melanoma) of 33.4 µM and a TGI (OVCAR-4 ovarian) of 25.9 µM. The TGI (SK-MEL-28 melanoma) was 27.2 µM, the TGI (EKVX NSCLC) was 26.7 µM and the TGI (MDA-N) was 19.7 µM. For the same molecule, the TGI (SNB-19 CNS) was 29 µM, the TGI (SN12C renal) was 26.5 µM and the TGI (OVCAR-3 ovarian) was 23.7 µM. It also gave a TGI (M14 melanoma) of 3.17 µM, a TGI (MDA-MB-435) of 22.6 µM and a TGI (CAKI-1 renal) of 28.3 µM. It also gave a TGI (K-562 leukemia) of 4.84 µM, a TGI (A549 NSCLC) of 25 µM and a TGI (HCT-15 colon) of 22.1 µM. For the same molecule, the TGI (MDA-MB-231 breast) was 30.3 µM, the TGI (UACC-62 melanoma) was 32.1 µM and the TGI (U251 CNS) was 20.9 µM. The TGI (ACHN renal) was 27.7 µM, the TGI (HCC-2998 colon) was 12.8 µM and the TGI (MALME-3M melanoma) was 25.6 µM. It also gave a TGI (UACC-257 melanoma) of 29.6 µM, a TGI (NCI/ADR-RES ovarian) of 28.8 µM and a TGI (HCT-116 colon) of 15.1 µM.
For `COc1ccc2c(c1)[C@@H]1c3cc(OC)c(OC)cc3CCN1CCC2`, the TGI (PC-3 prostate) was over 100 µM, the TGI (KM12 colon) was over 100 µM and the TGI (MCF7 breast) was over 100 µM. It also gave a TGI (IGROV1 ovarian) of over 100 µM, a TGI (HOP-92 NSCLC) of over 100 µM and a TGI (CCRF-CEM leukemia) of over 100 µM. For the same molecule, the TGI (HS 578T breast) was over 100 µM, the TGI (OVCAR-8 ovarian) was over 100 µM and the TGI (HOP-62 NSCLC) was over 100 µM. The TGI (NCI-H522 lung) was over 100 µM, the TGI (DU-145 prostate) was over 100 µM and the TGI (COLO 205 colon) was over 100 µM. It also gave a TGI (LOX IMVI melanoma) of over 100 µM, a TGI (TK-10 renal) of over 100 µM and a TGI (RPMI-8226 leukemia) of over 100 µM. It also gave a TGI (786-0 renal) of over 100 µM, a TGI (SNB-75 CNS) of over 100 µM and a TGI (HT29 colon) of over 100 µM. For the same molecule, the TGI (RXF 393 renal) was over 100 µM, the TGI (MOLT-4 leukemia) was over 100 µM and the TGI (SK-MEL-5 melanoma) was over 100 µM. The TGI (SF-268 CNS) was over 100 µM, the TGI (UO-31 renal) was over 100 µM and the TGI (SF-295 CNS) was over 100 µM. The TGI (A498 renal) was over 100 µM, the TGI (SR leukemia) was over 100 µM and the TGI (SF-539 CNS) was over 100 µM. It also gave a TGI (NCI-H460 lung) of over 100 µM, a TGI (NCI-H23 lung) of over 100 µM and a TGI (SW-620 colon) of over 100 µM. For the same molecule, the TGI (BT-549 breast) was over 100 µM, the TGI (T-47D breast) was over 100 µM and the TGI (HL-60(TB) leukemia) was over 100 µM. For the same molecule, the TGI (OVCAR-5 ovarian) was over 100 µM, the TGI (SK-MEL-2 melanoma) was over 100 µM and the TGI (OVCAR-4 ovarian) was over 100 µM. It also gave a TGI (SK-MEL-28 melanoma) of over 100 µM, a TGI (EKVX NSCLC) of over 100 µM and a TGI (MDA-N) of over 100 µM. The TGI (SNB-19 CNS) was over 100 µM, the TGI (SN12C renal) was over 100 µM and the TGI (OVCAR-3 ovarian) was over 100 µM. It also gave a TGI (M14 melanoma) of over 100 µM, a TGI (MDA-MB-435) of over 100 µM and a TGI (CAKI-1 renal) of over 100 µM. For the same molecule, the TGI (K-562 leukemia) was over 100 µM, the TGI (A549 NSCLC) was over 100 µM and the TGI (HCT-15 colon) was over 100 µM. The TGI (MDA-MB-231 breast) was over 100 µM, the TGI (UACC-62 melanoma) was over 100 µM and the TGI (U251 CNS) was over 100 µM. It also gave a TGI (ACHN renal) of over 100 µM, a TGI (HCC-2998 colon) of over 100 µM and a TGI (MALME-3M melanoma) of over 100 µM. It also gave a TGI (UACC-257 melanoma) of over 100 µM, a TGI (NCI/ADR-RES ovarian) of over 100 µM and a TGI (HCT-116 colon) of over 100 µM.
For `COC(=O)[C@@H]1C[C@@]23CCCN4CC[C@@]5(c6cccc(OC)c6N(C=O)[C@]15CC2)[C@@H]43`, the TGI (PC-3 prostate) was over 100 µM, the TGI (KM12 colon) was over 100 µM and the TGI (SK-OV-3 ovarian) was over 100 µM. It also gave a TGI (MCF7 breast) of over 100 µM, a TGI (IGROV1 ovarian) of over 100 µM and a TGI (HOP-92 NSCLC) of over 100 µM. For the same molecule, the TGI (CCRF-CEM leukemia) was over 100 µM, the TGI (HS 578T breast) was over 100 µM and the TGI (OVCAR-8 ovarian) was over 100 µM. For the same molecule, the TGI (HOP-62 NSCLC) was over 100 µM, the TGI (NCI-H522 lung) was over 100 µM and the TGI (DU-145 prostate) was over 100 µM. For the same molecule, the TGI (COLO 205 colon) was over 100 µM, the TGI (LOX IMVI melanoma) was over 100 µM and the TGI (TK-10 renal) was over 100 µM. The TGI (RPMI-8226 leukemia) was over 100 µM, the TGI (786-0 renal) was over 100 µM and the TGI (SNB-75 CNS) was over 100 µM. For the same molecule, the TGI (HT29 colon) was over 100 µM, the TGI (RXF 393 renal) was over 100 µM and the TGI (MOLT-4 leukemia) was over 100 µM. It also gave a TGI (SK-MEL-5 melanoma) of over 100 µM, a TGI (SF-268 CNS) of over 100 µM and a TGI (UO-31 renal) of over 100 µM. For the same molecule, the TGI (SF-295 CNS) was over 100 µM, the TGI (A498 renal) was over 100 µM and the TGI (SR leukemia) was over 100 µM. It also gave a TGI (SF-539 CNS) of over 100 µM, a TGI (NCI-H460 lung) of over 100 µM and a TGI (NCI-H23 lung) of over 100 µM. The TGI (SW-620 colon) was over 100 µM, the TGI (NCI-H226 lung) was over 100 µM and the TGI (BT-549 breast) was over 100 µM. The TGI (T-47D breast) was over 100 µM, the TGI (HL-60(TB) leukemia) was over 100 µM and the TGI (OVCAR-5 ovarian) was over 100 µM. The TGI (SK-MEL-2 melanoma) was over 100 µM, the TGI (OVCAR-4 ovarian) was over 100 µM and the TGI (SK-MEL-28 melanoma) was over 100 µM. For the same molecule, the TGI (EKVX NSCLC) was over 100 µM, the TGI (MDA-N) was over 100 µM and the TGI (SNB-19 CNS) was over 100 µM. For the same molecule, the TGI (SN12C renal) was over 100 µM, the TGI (OVCAR-3 ovarian) was over 100 µM and the TGI (M14 melanoma) was over 100 µM. For the same molecule, the TGI (MDA-MB-435) was over 100 µM, the TGI (CAKI-1 renal) was over 100 µM and the TGI (A549 NSCLC) was over 100 µM. It also gave a TGI (HCT-15 colon) of over 100 µM, a TGI (MDA-MB-231 breast) of over 100 µM and a TGI (UACC-62 melanoma) of over 100 µM. For the same molecule, the TGI (U251 CNS) was over 100 µM, the TGI (ACHN renal) was over 100 µM and the TGI (HCC-2998 colon) was over 100 µM. For the same molecule, the TGI (MALME-3M melanoma) was over 100 µM, the TGI (UACC-257 melanoma) was over 100 µM and the TGI (NCI/ADR-RES ovarian) was over 100 µM. For the same molecule, the TGI (HCT-116 colon) was over 100 µM.
